In patent US9766241B2, “PGC-1beta-protein-function regulator, mitochondria-function regulator, anti-obesity agent, and screening method therefor” (priority 2012, dated 2017):
Where a SMILES comes first, the peptide text is derived from it. The star is where a group is joined. Cbz = O=C(OCc1ccccc1)*

Key:
[1] = system: PPRE ×3-TK-luc reporter (PGC-1β coactivator function); test: Luciferase assay with PPRE ×3-TK-luc reporter in HEK-293 cells; assay type: cell-based
Method: Specifically, control siRNA or Syno siRNA was temporarily transfected in HEK-293 cells. Reporter plasmid containing PPAR binding sites (PPRE ×3-TK-luc), CMV-β-gal expression construct, or siRNA was temporarily transfected in HEK-293 cells. After 16 hours, DMSO or Wy-14643 was treated for 6 hours, and then Luciferase assay was performed (FIG. 9B).
After 16 hours from the transfection, cells were treated with solvent (DMSO) or Wy-14643 for 6 hours and the Luciferase assay was performed.
The luciferase assay was performed similar to the example 9 except for using 5 μM of LS-102, 0.1 μM and 0.5 μM of 348, 0.1 μM and 5 μM of 349, and 5 μM of 351 and 355 instead of transfecting the Syno siRNA in the example 9. The same volume of DMSO, which is a solvent of each compound, was added as a control.

PGC-1β [2] = test: PGC-1β protein and mRNA level in skin fibroblasts from syno cKO mice (Western blot, real-time PCR); assay type: cell-based, mouse
Method: Skin fibroblasts from syno CKO mice were cultivated in DMEM medium and treated by tamoxifen (Tam) or solvent (DMSO) for 48 hours. Cell extracts or total RNA were collected, each was used for western blot and real-time PCR, respectively.
Further, in order to investigate whether […] was involved in synoviolin-mediated degradation of PGC-1β in cells, after the treatment by tamoxifen or solvent in the above experiment, 10 μM of MG-132, which is a proteasome inhibitor, was added and treated for two hours, and then, similar experiment was performed.

[3] = biological target: T1, binding between synoviolin and PGC-1β (Homo sapiens, UniProt Q86TM6, E545G); test: in vitro binding assay between synoviolin and PGC-1β (Western blot)
T1 construct: GST fusion synoviolin which lack transmembrane domain (GST syno ΔTM); made in house
T1 sequence (Q86TM6 236-617 E545G): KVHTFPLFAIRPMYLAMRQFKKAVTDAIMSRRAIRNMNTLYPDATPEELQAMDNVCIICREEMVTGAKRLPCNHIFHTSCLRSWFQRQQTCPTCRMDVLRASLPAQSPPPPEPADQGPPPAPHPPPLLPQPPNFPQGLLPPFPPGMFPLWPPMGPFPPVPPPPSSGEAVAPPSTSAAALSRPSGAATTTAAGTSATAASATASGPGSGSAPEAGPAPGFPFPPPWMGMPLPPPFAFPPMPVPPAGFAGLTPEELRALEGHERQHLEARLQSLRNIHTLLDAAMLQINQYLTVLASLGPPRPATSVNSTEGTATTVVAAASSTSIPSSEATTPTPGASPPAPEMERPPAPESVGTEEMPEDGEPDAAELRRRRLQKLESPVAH
Method: In order to investigate an influence on PGC-1β functions by inhibitor of E3 ubiquitin ligase activity of synoviolin, an effect on inhibition of binding between the synoviolin and the PGC-1β was firstly investigated. Specifically, in a usual binding assay using MBP-PGC-1β-His protein and GST-Syno ΔTM protein, LS-102 (PARMACOPIEA, Corporation) was added and these proteins were incubated for 12 hours. Then, these proteins were separated by SDS-PAGE of 12% gel concentration, and Western blot was performed. Anti-GST antibody diluted 2500 folds were used as a primary antibody, and anti-rat HRP diluted 10000 folds was used as a secondary antibody.
In order to obtain a substance which inhibits the binding between synoviolin and PGC-1β, with respect to the substances shown in the following table 2 included in screening library relating to E3 ubiquitin ligase, in order to examine influence on the binding between synoviolin and PGC-1β, in vitro binding assays similar to the examples 3 to 6 were performed. The results were shown in FIGS. 11-1, 11-2, 11-3, and 11-4. In this example, 2 μg of PGC-1β (see FIG. 4) and 2 μg of GST-Syno ΔTM (see FIG. 6) were used.
The binding assay was performed using the following assay system. 2 μg of MBP-PGC-1β His (1-367aa) and 2 μg of the modified synoviolin fused to GST were bound for 12 hours in a buffer (20 mM Tris-HCl pH 8.0, 100 mM NaCl, 1 mM EDTA. 0.1% NP-40, 5% glucose 1, and protease inhibitors) to detect PGC-1β using anti-PGC-1β antibody.

synoviolin protein = biological target: T2, synoviolin protein (Homo sapiens, UniProt Q86TM6); conditions: disclosed in JP 2008-74753 A; cited from earlier work
T2 construct: MBP-Syno ΔTM-His means synoviolin in which transmembrane domain has been deleted; His tag (C)
T2 sequence (Q86TM6 246-617 limits assumed): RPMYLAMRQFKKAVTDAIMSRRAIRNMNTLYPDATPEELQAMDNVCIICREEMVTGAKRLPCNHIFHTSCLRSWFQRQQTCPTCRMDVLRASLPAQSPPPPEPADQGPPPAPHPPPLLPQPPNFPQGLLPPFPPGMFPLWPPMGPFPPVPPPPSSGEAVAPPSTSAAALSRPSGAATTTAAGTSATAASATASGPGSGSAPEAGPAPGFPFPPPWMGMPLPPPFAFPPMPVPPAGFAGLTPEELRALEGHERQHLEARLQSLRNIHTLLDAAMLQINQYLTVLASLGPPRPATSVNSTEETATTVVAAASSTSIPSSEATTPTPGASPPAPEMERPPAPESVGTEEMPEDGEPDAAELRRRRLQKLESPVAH

[4] = system: mitochondria in HEK-293 cells; test: electron microscope observation of mitochondria in treated cells; assay type: cell-based; conditions: 1 μM, observed after 72 hours, FIG. 13
Method: The observation of mitochondria was performed similar to the example 9 except for observing after 72 hours from adding 1 μM of 348, 349, 351 and 355 to cells instead of transfecting the Syno siRNA in the example 9.

PGC-1β [5] = test: PGC-1β protein and mRNA level in treated HEK 293 cells; assay type: cell-based
Method: Firstly, synoviolin knock down was performed by siRNA in HEK 293 cells. Synoviolin siRNA was prepared in accordance with already reported article (see, Yamasaki, S., et al. (2007). Cytoplasmic destruction of p53 by the endoplasmic reticulum-resident ubiquitin ligase ‘Synoviolin’. EMBO J 26, 113-122.). Transfection of siRNA into cells was performed in accordance with a protocol with Lipofectamine 2000 (Invitrogen, Corporation).
When a protein level of the PGC-1β was investigated as a confirmation, the protein level of the PGC-1β was doubled in LS-102 treated cells. On the other hand, the expression of PGC-1β mRNA was not changed by the LS-102 treatment.

[6] = system: mitochondria in adipose tissue cells; test: mitochondria in adipose tissue of mice given LS-102 (electron micrographs); assay type: in vivo, C57BL/6J mice; conditions: 50 mg/kg body weight per day intraperitoneally, fifty seventh day, vs DMSO, FIG. 18
Method: 50 mg/kg body weight of LS-102 per day or solvent (DMSO) as a control was administered intraperitoneally to 7 to 8-week-old C57BL/6J mice to observe adipose tissue slices of the mice of fifty seventh day after the administration using a microscope. […] Magnifications of the electron microscope were 2,500 folds and 10,000 folds and the white bars indicate scale bars (2 μm in the 2,500 folds and 500 nm in the 10,000 folds).

[7] = biological target: T3, PGC-1β ubiquitination by synoviolin (SYVN1) (Homo sapiens, UniProt Q86TM6); test: in vitro ubiquitination of PGC-1β by synoviolin (Western blot); assay type: biochemical; conditions: for inhibiting activity of the PGC-1β ubiquitination, concentration dependency: 1 μM and 10 μM, FIG. 21; for polyubiquitination of PGC-1β: compared to control group (DMSO), FIG. 11-4
T3 construct: MBP-Syno ΔTM-His means synoviolin in which transmembrane domain has been deleted; His tag (C)
T3 sequence (Q86TM6 246-617 limits assumed): as above
Method: The ubiquitin assay was performed using the following assay system. E1-His 125 ng, UbcH5C 150 ng, MBP-SYVN1 ΔTM-His 150 ng, GST-PGC-1β (1-367 aa; GST-P5), and HA-ubiquitin (HA-Ub) 750 ng were reacted at 30° C. for 2 hours in a buffer (50 mM Tris-HCL pH 7.5, 5 mM MgCl2, 0.6 mM DTT, and 2 mM ATP) to be ubiquitinated. Thereafter, the ubiquitinated proteins were bound to Glutathione Sepharose in GST washing buffer (50 mM Tris-HCl pH 7.5, 0.5 M NaCl, 1% Triton X, 1 mM EDTA, 1 mM DTT, and protease inhibitors). After washing with the GST washing buffer, ubiquitination of PGC-1β was detected by Western blotting using anti-PGC-1β antibody and anti-HA antibody.
In order to examine the concentration dependency of the inhibiting activity of test substances 348 and 349 in PGC-1β ubiquitination by synoviolin (SYVN1), the in vitro binding assay was performed in the same manner as described in Example 11.

[8] = 2 μg PGC-1β and 2 μg GST-Syno ΔTM, FIGS. 11-1 to 11-4

Cc1cccc(Nc2cc(Cl)nc(SCC(=O)O)n2)c1C [Wy-1463, reference compound]
PPRE ×3-TK-luc reporter activity ([1]; PPARα agonist treated for 6 hours vs DMSO, FIG. 9B): induced

CC/C(=C(\c1ccccc1)c1ccc(OCCN(C)C)cc1)c1ccccc1 [Tam]
protein level of PGC-1β (PGC-1β [2]; Tam treatment 48 hours (induces synoviolin knockout) vs DMSO, skin fibroblasts of syno cKO mice): 1.4 folds | mRNA level of PGC-1β (PGC-1β [2]; Tam treatment 48 hours, skin fibroblasts of syno cKO mice): no change

O=C1C=CC(=O)c2c(Cl)ccc(O)c21 [compound 358]
binding between synoviolin and PGC-1β [3, 8]: inhibition of the binding

CC(C)C[C@@H](C=O)NC(=O)[C@H](CC(C)C)NC(=O)[C@H](CC(C)C)NC(=O)OCc1ccccc1 [MG-132] (Cbz-Leu-Leu-Leu-aldehyde)
protein level of PGC-1β (PGC-1β [2]; 10 μM MG-132 for two hours, solvent-treated (DMSO-treated) skin fibroblasts): 1.6 folds | protein level of PGC-1β, additive effect of tamoxifen treatment and MG-132 (PGC-1β [2]; 10 μM MG-132 for two hours, tamoxifen-treated skin fibroblasts): 1.1 folds

CC1=CC(=O)c2c(O)cccc2C1=O [plumbagin, 2-methyl-5-hydroxy-1,4-naphthoquinone]
self-ubiquitination of synoviolin protein (synoviolin protein): inhibit self-ubiquitination of synoviolin protein

O=C1CCC(=O)c2c(O)cccc21 [compound 355]
number and size of mitochondria [4]: proliferation (increase in the number) of mitochondria or increase in size of mitochondria has been observed | binding between synoviolin and PGC-1β [3, 8]: inhibition of the binding

CC1=CC(=O)c2ccccc2C1=O [compound 351]
binding between synoviolin and PGC-1β [3, 8]: enhances the binding | luciferase activity ([1]; compounds instead of Syno siRNA (351: 5 μM), DMSO control, FIG. 12): lowered

CCNCCN(CC)c1nc(Nc2ccc3ncoc3c2)nc(N[C@@H](C)C2CCCCC2)n1 [LS-102]
protein level of the PGC-1β (PGC-1β [5]; LS-102 treated cells): doubled | expression of PGC-1β mRNA (PGC-1β [5]; LS-102 treatment): not changed | number and volume density of mitochondria in the adipose tissue cells [6]: increases in number and volume density of mitochondria | binding between synoviolin and PGC-1β ([3]; MBP-PGC-1β-His and GST-Syno ΔTM, incubated 12 hours, FIG. 10): has an effect on inhibition of binding

O=C1C=CC(=O)c2c(O)ccc(O)c21 [compound 348]
inhibiting activity of the PGC-1β ubiquitination, concentration dependency [7]: in 10 μM is higher than that in 1 μM | polyubiquitination of PGC-1β [7]: suppressed | number and size of mitochondria [4]: proliferation (increase in the number) of mitochondria or increase in size of mitochondria has been observed | binding between synoviolin and PGC-1β [3, 8]: inhibition of the binding

O=c1c(O)c(-c2ccc(O)c(O)c2)oc2cc(O)cc(O)c12 [quercetin, 2-(3,4-dihydroxyphenyl)-3,5,7-trihydroxy-4H-1-benzopyrano-4-on, reference compound]
self-ubiquitination of synoviolin protein (synoviolin protein): inhibit self-ubiquitination of synoviolin protein | binding between synoviolin and PGC-1β [3, 8]: inhibition of the binding

O=C1C=CC(=O)c2c(O)cccc21 [compound 349]
inhibiting activity of the PGC-1β ubiquitination, concentration dependency [7]: in 10 μM is higher than that in 1 μM | polyubiquitination of PGC-1β [7]: suppressed | number and size of mitochondria [4]: proliferation (increase in the number) of mitochondria or increase in size of mitochondria has been observed | binding between synoviolin and PGC-1β [3, 8]: inhibition of the binding
